Laboratory results as given in ChEMBL document CHEMBL5247653, “Discovery of Clinical Candidate ACT-777991, a Potent CXCR3 Antagonist for Antigen-Driven and Inflammatory Pathologies” (J Med Chem, 2023).
The source made the active and inactive calls. The calls are words filed in the database; no cut-off is given here.

What was measured:
[1] = molecular target: T1, C-X-C chemokine receptor type 3 (Homo sapiens, UniProt P49682); experiment: Antagonist activity at CXCR3 (unknown origin) in human T cells in venous blood assessed as receptor internalization incubated for 30 mins in presence of CXCL10 by flow cytometric analysis; assay type: cell-based, T cell
T1 sequence (P49682 whole entry): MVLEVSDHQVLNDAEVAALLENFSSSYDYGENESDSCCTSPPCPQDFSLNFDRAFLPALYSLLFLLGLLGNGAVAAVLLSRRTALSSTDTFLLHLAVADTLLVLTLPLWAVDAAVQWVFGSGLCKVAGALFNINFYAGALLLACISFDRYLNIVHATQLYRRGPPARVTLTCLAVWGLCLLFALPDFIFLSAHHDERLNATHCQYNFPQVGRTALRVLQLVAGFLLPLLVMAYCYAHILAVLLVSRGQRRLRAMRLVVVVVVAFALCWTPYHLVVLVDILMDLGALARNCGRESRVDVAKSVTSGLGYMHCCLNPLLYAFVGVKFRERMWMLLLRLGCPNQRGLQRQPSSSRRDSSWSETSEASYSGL

[2] = Metabolic stability in dog liver microsomes assessed as intrinsic clearance at 1 uM and measured upto 15 mins in presence of NADPH regenerating system by LC-MS/MS analysis; assay type: ADME, Canis lupus familiaris, Microsome; conditions: read-out: CLH
[3] = Unbound clearance in Beagle dog plasma at 1 mg/kg, iv; assay type: ADME, organism-based, Canis lupus familiaris; conditions: in vivo
[4] = Oral bioavailability in Cynomolgus monkey at 1.25 mg/kg; assay type: ADME, organism-based, Macaca fascicularis; conditions: in vivo
[5] = molecular target: T2, C-X-C chemokine receptor type 3 (Homo sapiens) (UniProt P49682); experiment: Binding affinity to human CXCR3 expressed in CHO-K1 cell membrane assessed as […] (Kon) using tritium-labeled ligand by […] assay; assay type: cell membranes; conditions: filed as antagonist
T2 sequence (whole entry): T1 sequence (P49682 whole entry)

[6] = molecular target: T3, C-X-C chemokine receptor type 3 (Mus musculus) (UniProt O88410); experiment: In vivo antagonist activity at CXCR3 in LPS-induced DBA/1 mouse model assessed as reduction in mouse CXCL10-mediated chemotaxis in CD8+ T cells at 0.06 microg/g, po bid preincubated for 3 days followed by LPS stimulation for 30 mins and measured after 3 days by flow cytometry; assay type: functional, organism-based; set-up: scale not given: the % may be the effect or the level left; conditions: T-cell, dose 0.06 µg/g, time 6.0 day
T3 sequence (whole entry): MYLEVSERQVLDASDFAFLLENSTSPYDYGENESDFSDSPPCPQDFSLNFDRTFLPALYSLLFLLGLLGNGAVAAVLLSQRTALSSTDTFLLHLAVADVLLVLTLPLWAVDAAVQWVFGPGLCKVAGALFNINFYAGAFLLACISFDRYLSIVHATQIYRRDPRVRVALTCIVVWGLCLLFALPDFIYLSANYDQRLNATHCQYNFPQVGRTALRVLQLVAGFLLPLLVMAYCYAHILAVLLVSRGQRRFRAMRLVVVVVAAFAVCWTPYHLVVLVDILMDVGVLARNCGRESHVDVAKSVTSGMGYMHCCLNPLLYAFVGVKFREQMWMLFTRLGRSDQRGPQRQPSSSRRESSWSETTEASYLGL

[7] = Metabolic stability in rat hepatocyte assessed as M3 metabolite formation at 1 uM and measured upto 15 mins in presence of NADPH regenerating system by LC-MS/MS analysis; assay type: ADME, cell-based; conditions: hepatocytes, 0.25 h
[8] = molecular target: Cytochrome P450 2D6 (Homo sapiens, UniProt P10635); experiment: Competitive inhibition of CYP2D6 (unknown origin); assay type: ADME
[9] = Metabolic stability in rat hepatocyte assessed as M4 metabolite formation at 1 uM and measured upto 15 mins in presence of NADPH regenerating system by LC-MS/MS analysis; assay type: ADME, cell-based; conditions: hepatocytes, 0.25 h
[10] = molecular target: C-X-C chemokine receptor type 3 (Canis lupus familiaris, UniProt Q5KSK8); experiment: Antagonist activity at dog CXCR3 expressed in CHO-K1 cells assessed as reduction in CXCL11 induced calcium flux by FLIPR method; assay type: cell-based
[11] = molecular target: T1, C-X-C chemokine receptor type 3; experiment: Antagonist activity at human CXCR3 expressed in CHO-K1 cells assessed as reduction in CXCL10 induced calcium flux by FLIPR method; assay type: cell-based
[12] = Unbound clearance in Wistar rat plasma at 0.5 mg/kg, iv; assay type: ADME, organism-based; conditions: in vivo
[13] = AUC (0 to last) in Cynomolgus monkey at 1.0 mg/kg,iv or 1.25 mg/kg, po; assay type: ADME, organism-based, Macaca fascicularis; set-up: dose 1 mg/kg, route iv; conditions: in vivo
[14] = Half life in Cynomolgus monkey at 1.0 mg/kg,iv or 1.25 mg/kg, po; assay type: ADME, organism-based, Macaca fascicularis; conditions: in vivo
[15] = Volume of distribution at steady state in Wistar rat at 3 mg/kg,iv or 3 mg/kg, po; assay type: ADME, organism-based; conditions: in vivo, read-out: Vdss
[16] = Apparent permeability across apical to basolateral side in dog MDCK-II cells; assay type: ADME, cell-based, Canis lupus familiaris
[17] = Metabolic stability in dog hepatocyte assessed as M3 metabolite formation at 1 uM and measured upto 15 mins in presence of NADPH regenerating system by LC-MS/MS analysis; assay type: ADME, cell-based, Canis lupus familiaris; conditions: hepatocytes, 0.25 h
[18] = Metabolic stability in human hepatocyte assessed as M2 metabolite formation at 1 uM and measured upto 15 mins in presence of NADPH regenerating system by LC-MS/MS analysis; assay type: ADME, cell-based; conditions: hepatocytes, 0.25 h
[19] = Half life in Beagle dog at 2.5 mg/kg,iv or 2.5 mg/kg, po; assay type: ADME, organism-based, Canis lupus familiaris; conditions: in vivo
[20] = molecular target: C-X-C chemokine receptor type 5 (Homo sapiens) (UniProt P32302); experiment: Binding affinity to CXCR5 (unknown origin) at 10 uM by radioligand binding assay
[21] = Clearance in Wistar rat at 3 mg/kg,iv or 3 mg/kg, po; assay type: ADME, organism-based; conditions: in vivo
[22] = Metabolic stability in human hepatocytes assessed as intrinsic clearance per 10^6 cells at 1 uM by LC-MS/MS analysis; assay type: ADME, cell-based, Hepatocyte
[23] = Metabolic stability in dog liver microsomes assessed as M3 metabolite formation at 1 uM and measured upto 15 mins in presence of NADPH regenerating system by LC-MS/MS analysis; assay type: ADME, Canis lupus familiaris, Microsome; conditions: 0.25 h
[24] = Metabolic stability in human liver microsomes assessed as M3 metabolite formation at 1 uM and measured upto 15 mins in presence of NADPH regenerating system by LC-MS/MS analysis; assay type: ADME, Microsome; conditions: 0.25 h
[25] = molecular target: Solute carrier organic anion transporter family member 1B1 (Homo sapiens, UniProt Q9Y6L6); experiment: Inhibition of human OATP1B1; assay type: ADME
[26] = molecular target: Cytochrome P450 3A4 (Homo sapiens, UniProt P08684); experiment: Competitive inhibition of CYP3A4 (unknown origin); assay type: ADME
[27] = molecular target: T4, C-X-C chemokine receptor type 3 (Mus musculus, UniProt O88410); experiment: Antagonist activity at CXCR3 in DBA/1 mouse whole blood assessed as receptor internalization incubated for 30 mins in presence of CXCL10 by flow cytometric analysis; assay type: tissue-based
T4 sequence (O88410 whole entry): T3 sequence (whole entry)

[28] = Cmax in Wistar rat at 3 mg/kg,iv or 3 mg/kg, po; assay type: ADME, organism-based; set-up: dose 3 mg/kg, route iv; conditions: in vivo
[29] = Protein binding in mouse plasma assessed as fraction unbound at 20 ug/ml using 14C-labeled ligand by rapid equilibrium dialysis; assay type: ADME, cell-free; conditions: at 20 µg/mL
[30] = Clearance in Beagle dog at 2.5 mg/kg,iv or 2.5 mg/kg, po; assay type: ADME, organism-based, Canis lupus familiaris; conditions: in vivo
[31] = AUC (0 to last) in Wistar rat at 3 mg/kg,iv or 3 mg/kg, po; assay type: ADME, organism-based; set-up: dose 3 mg/kg, route iv; conditions: in vivo
[32] = In vivo inhibition of hERG in iv dosed dog assessed as change in PR interval; assay type: toxicity, organism-based, Canis lupus familiaris

Sequence of C-X-C chemokine receptor type 5 (Homo sapiens) (P32302 whole entry): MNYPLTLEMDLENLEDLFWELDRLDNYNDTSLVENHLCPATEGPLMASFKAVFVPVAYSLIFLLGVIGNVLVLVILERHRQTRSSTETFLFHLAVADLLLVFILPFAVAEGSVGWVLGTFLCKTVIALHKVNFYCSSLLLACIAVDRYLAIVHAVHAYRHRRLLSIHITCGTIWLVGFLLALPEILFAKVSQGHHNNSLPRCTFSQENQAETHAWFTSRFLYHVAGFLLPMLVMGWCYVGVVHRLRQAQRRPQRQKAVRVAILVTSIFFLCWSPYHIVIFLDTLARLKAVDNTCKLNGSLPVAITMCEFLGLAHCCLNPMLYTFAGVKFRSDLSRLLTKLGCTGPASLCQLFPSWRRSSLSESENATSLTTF
Sequence of Cytochrome P450 2D6 (P10635 whole entry): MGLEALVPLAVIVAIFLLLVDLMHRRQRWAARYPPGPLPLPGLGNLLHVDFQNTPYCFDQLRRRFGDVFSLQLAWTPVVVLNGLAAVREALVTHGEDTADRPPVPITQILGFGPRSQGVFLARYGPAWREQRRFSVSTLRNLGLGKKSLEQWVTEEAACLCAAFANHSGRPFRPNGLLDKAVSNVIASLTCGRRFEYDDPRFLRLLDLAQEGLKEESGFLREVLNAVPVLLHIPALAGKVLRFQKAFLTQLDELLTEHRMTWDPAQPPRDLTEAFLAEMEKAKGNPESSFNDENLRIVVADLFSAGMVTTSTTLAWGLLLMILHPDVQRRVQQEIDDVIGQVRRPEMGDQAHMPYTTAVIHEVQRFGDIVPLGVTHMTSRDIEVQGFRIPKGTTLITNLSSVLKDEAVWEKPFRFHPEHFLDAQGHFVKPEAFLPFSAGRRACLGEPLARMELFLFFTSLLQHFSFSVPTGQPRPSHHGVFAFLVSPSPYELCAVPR
Sequence of Solute carrier organic anion transporter family member 1B1 (Q9Y6L6 whole entry): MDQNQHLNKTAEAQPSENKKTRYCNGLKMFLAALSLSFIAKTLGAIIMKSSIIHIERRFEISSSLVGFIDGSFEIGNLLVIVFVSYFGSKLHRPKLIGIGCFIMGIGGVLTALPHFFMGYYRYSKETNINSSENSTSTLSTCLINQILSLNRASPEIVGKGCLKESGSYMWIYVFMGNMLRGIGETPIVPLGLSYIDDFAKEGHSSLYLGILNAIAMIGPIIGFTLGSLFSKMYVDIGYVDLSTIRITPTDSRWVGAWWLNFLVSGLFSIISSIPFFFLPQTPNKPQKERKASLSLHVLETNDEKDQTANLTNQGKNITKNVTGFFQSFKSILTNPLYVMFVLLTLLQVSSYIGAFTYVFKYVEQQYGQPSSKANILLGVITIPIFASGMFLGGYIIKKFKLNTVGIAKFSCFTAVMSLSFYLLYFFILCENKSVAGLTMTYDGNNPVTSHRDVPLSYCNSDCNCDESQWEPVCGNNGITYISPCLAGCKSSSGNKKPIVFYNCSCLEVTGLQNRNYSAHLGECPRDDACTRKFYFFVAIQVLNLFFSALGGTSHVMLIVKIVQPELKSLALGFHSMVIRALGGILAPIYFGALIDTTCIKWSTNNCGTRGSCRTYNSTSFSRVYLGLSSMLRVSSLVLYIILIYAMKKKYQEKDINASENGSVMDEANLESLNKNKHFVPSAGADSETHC
Sequence of C-X-C chemokine receptor type 3 (Canis lupus familiaris, UniProt Q5KSK8) (Q5KSK8 whole entry): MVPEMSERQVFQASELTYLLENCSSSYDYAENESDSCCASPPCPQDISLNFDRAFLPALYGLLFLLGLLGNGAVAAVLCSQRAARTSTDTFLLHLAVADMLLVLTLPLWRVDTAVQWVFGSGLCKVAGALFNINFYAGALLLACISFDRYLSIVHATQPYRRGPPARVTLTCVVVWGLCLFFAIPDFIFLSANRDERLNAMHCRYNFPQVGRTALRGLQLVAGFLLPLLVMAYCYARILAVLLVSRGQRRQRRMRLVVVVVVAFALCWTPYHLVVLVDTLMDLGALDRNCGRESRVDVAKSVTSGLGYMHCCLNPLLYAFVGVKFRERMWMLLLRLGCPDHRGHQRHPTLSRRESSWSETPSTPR
Sequence of Cytochrome P450 3A4 (P08684 whole entry): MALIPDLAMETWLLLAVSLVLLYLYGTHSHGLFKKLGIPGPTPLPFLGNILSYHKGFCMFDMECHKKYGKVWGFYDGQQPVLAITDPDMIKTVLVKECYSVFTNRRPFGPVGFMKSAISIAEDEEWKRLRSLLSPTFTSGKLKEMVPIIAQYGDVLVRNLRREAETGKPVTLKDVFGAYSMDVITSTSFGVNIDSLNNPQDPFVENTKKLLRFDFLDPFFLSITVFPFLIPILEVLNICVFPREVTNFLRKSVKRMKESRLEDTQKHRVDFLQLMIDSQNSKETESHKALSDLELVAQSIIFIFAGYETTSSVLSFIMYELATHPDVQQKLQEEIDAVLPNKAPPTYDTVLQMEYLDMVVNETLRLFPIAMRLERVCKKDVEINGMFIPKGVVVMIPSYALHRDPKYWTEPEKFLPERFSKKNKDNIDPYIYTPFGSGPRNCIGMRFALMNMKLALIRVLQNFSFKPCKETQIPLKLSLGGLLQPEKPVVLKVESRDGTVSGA

- IC50 [1]: 56.3 nM
- microsomal CLint at 1 µM [2]: < 10 µL/min/mg
- CL free [3]: 15 mL/min/kg
- bioavailability [4]: 92%
- ka [5]: 6.6 10^6/M/s
- Activity [6]: 55%
- Stability [7]: Unstable
- IC50 [8]: > 50000 nM
- Stability [9]: Unstable
- IC50 [10]: 4 nM
- IC50 [11]: 3.2 nM
- CL free [12]: 156 mL/min/kg
- AUC(0-t) [13]: 3610 ng·h/mL
- half-life [14]: 4 h
- Vd [15]: 2.7 L/kg
- Papp A→B [16]: 1.5 ×10⁻⁶ cm/s
- Stability [17]: Unstable
- Stability [18]: Unstable
- half-life [19]: 5.3 h
- Activity [20]: inactive
- clearance [21]: 9.5 mL/min/kg
- CLH [22]: < 2 µL/min/mg
- Stability [23]: Unstable
- Stability [24]: Unstable
- inhibition (INH) [25]: Not Active
- IC50 [26]: > 50000 nM
- IC50 [27]: 161 nM
- Cmax [28]: 910 ng/mL
- fraction unbound at 20 ug/ml [29]: 0.1
- clearance [30]: 9.5 mL/min/kg
- AUC(0-t) [31]: 4210 ng·h/mL
Compound: Cc1ncn(CC(=O)N2CCN(c3sc(C(F)(F)F)nc3-c3cnc(C(F)(F)F)nc3)C[C@H]2CCO)n1
- inhibition (INH) [32]: Non-Toxic
